One assay relates to HT29MTX cells. The assay is described as follows: Growth inhibition of HT29MTX cells (Trypan blue dye exclusion), resistance to methotrexate. Type of assay: cell-based, human. As to conditions: 1 μM methotrexate. The source says: Seven human tumor cell lines were used to determine the cellular effects of MGL-BL929. These comprise five adherent solid tumor-derived cell lines (including the colorectal carcinoma cell line HT29, two stable variants of HT29 selected for their high levels of resistance to methotrexate (HT29MTX), and to fluorouracil (HT29FUra), the ovarian carcinoma cell line SKOV3, and the hepatoblastoma-derived cell line (HepG2), and 2 non-adherent tumor cell lines (including the T-cell lymphoma cell line Jurkat, and the acute lymphocytic leukemia cell line Reh). Similarly, human non-tumor skin fibroblasts (CDGII) were exposed to MGL-BL929 at various concentrations in order to explore selectivity of MGL-BL929 towards cancer cells.
The cells lines were thawed from mycoplasma-free frozen stocks and were controlled for contamination. Cells were maintained in cell culture medium (RPMI 1640 or DMEM according to the growth requirements of each cell line), supplemented with 10% FBS and antibiotics (streptomycin, 50 μg/mL, and penicillin, 50 U/mL) at 37° in an atmosphere containing 5% CO2. Cells were exposed in 12 well-cell plates to the purified recombinant MGL-BL929 at a concentration range from 0.05 U/mL to 5 U/mL, and were harvested 24 hr., 48 hr., 72 hr., and 96 hr. from start of the exposure. Cell viability was measured with the Trypan blue dye exclusion test in Malassez chambers.

The target in assay [1] is Brevibacterium aurantiacum (ATCC 9175; formerly B. linens) methionine gamma-lyase MGL-BL929, recombinant, SEQ ID NO: 1 (Brevibacterium aurantiacum, UniProt A0A2H1K3G9). To be noted: for activity of the enzyme towards the substrate (in words): 25 mM of substrate; for activity of the enzyme towards the substrate (in words) / Vmax: pH 7.5, 25° C., 10 min; for Vmax: 100 mM K*PO4, 0.01 mM PLP.

In the case of `CN(Cc1cnc2nc(N)nc(N)c2n1)c1ccc(C(=O)N[C@@H](CCC(=O)O)C(=O)O)cc1` [methotrexate], in the assay on HT29MTX cells, the “resistance of the cells to methotrexate (in words)” value is reported as “fully resistant”.

As to `N[C@@H](CCSC[C@H](N)C(=O)O)C(=O)O` [L-Cystathionine, L-cystathionine], in assay [1], the “activity of the enzyme towards the substrate (in words)” value (from here on “activity”) is “no activity” and the Vmax is 0 μmol · min^−1 · m^−1.

Consider `Nc1ncnc2c1ncn2[C@@H]1O[C@H](CSCC[C@H](N)C(=O)O)[C@@H](O)[C@H]1O` [S-Adenosyl L-homocysteine], for which, in assay [1], the “activity” value was “no activity” and the Vmax was 0 μmol · min^−1 · m^−1.

For `N[C@@H](CS)C(=O)O` [L-Cysteine, L-cysteine], in assay [1], the “activity” value was “no activity” and the Vmax was 0 μmol · min^−1 · m^−1.

For the compound `CSCC[C@@H](N)C(=O)O` [D-methionine], in assay [1], the “activity” value is recorded as “no activity” and the Vmax was found to be 0 μmol · min^−1 · m^−1.

Take `CSCC[C@H](N)C(=O)O` [L-Methionine, L-methionine]: in assay [1], the Vmax was determined as 5.77 ± 1.4 μmol · min^−1 · m^−1.

`N[C@@H](CCS)C(=O)O` [L-Homocysteine, L-homocysteine]: the Vmax in assay [1] was 27.7 ± 5.7 μmol · min^−1 · m^−1. For the same compound, the “Affinity relative to L-methionine (fold greater)” value in assay [1] (L-homocysteine compared with L-methionine) came to 7.3 fold.

The values above are taken from patent publication US9051562B2, “Polypeptides isolated from brevibacterium aurantiacum and their use for the treatment of cancer” (Institut National de la Santé et de la Recherche Médicale …, priority 2011, dated 2015).
